Targets include BRAF(V600E) (Homo sapiens, UniProt P15056, V600E); EGFR(L858R,T790M) (Homo sapiens, UniProt P00533, L858R/T790M); ERBB2 (Homo sapiens, UniProt P04626); FGR (Homo sapiens, UniProt P09769); GSK3B (Homo sapiens, UniProt P49841); KIT(L576P) (Homo sapiens, UniProt P10721, L576P); MARK3 (Homo sapiens, UniProt P27448); NEK3 (Homo sapiens, UniProt P51956); PIK3CA(H1047L) (Homo sapiens, UniProt P42336, H1047L); PIK3CG (Homo sapiens, UniProt P48736); TEC (Homo sapiens, UniProt P42680); TIE1 (Homo sapiens, UniProt P35590); TLK1 (Homo sapiens, UniProt Q9UKI8); ULK3 (Homo sapiens, UniProt Q6PHR2).

Holding throughout (test): biochemical
Set-up in all cases: KINOMEscan active-site-directed competition binding panel, 468 kinases, percent of DMSO control at 1 uM
Holding throughout (settings): KINOMEscan binding, percent of DMSO control; read-out: Ctrl%

Another assay has as its target T1, ADCK3 (Homo sapiens, UniProt Q8NI60).
T1 construct: gene COQ8A

For another assay, the target named is T2, CAMK1B (Homo sapiens, UniProt Q6P2M8).
T2 construct: gene PNCK

Another assay concerns the target T3, CDK4-cyclinD3 (Homo sapiens, UniProt P11802).
T3 construct: cyclinD3

A further assay deals with T4, ERK8 (Homo sapiens, UniProt Q8TD08).
T4 construct: gene MAPK15

Another assay concerns the target T5, MEK5 (Homo sapiens, UniProt Q13163).
T5 construct: gene MAP2K5

A further assay deals with T6, MINK (Homo sapiens, UniProt Q8N4C8).
T6 construct: gene MINK1

A further assay concerns the target T7, MST3 (Homo sapiens, UniProt Q9Y6E0).
T7 construct: gene STK24

The target of the next assay is T8, NDR2 (Homo sapiens, UniProt Q9Y2H1).
T8 construct: gene STK38L

A further assay has as its target T9, SGK (Homo sapiens, UniProt O00141).
T9 construct: gene SGK1

Another assay concerns the target T10, TRKA (Homo sapiens, UniProt P04629).
T10 construct: gene NTRK1

GSK3B, sequence (P49841 whole entry): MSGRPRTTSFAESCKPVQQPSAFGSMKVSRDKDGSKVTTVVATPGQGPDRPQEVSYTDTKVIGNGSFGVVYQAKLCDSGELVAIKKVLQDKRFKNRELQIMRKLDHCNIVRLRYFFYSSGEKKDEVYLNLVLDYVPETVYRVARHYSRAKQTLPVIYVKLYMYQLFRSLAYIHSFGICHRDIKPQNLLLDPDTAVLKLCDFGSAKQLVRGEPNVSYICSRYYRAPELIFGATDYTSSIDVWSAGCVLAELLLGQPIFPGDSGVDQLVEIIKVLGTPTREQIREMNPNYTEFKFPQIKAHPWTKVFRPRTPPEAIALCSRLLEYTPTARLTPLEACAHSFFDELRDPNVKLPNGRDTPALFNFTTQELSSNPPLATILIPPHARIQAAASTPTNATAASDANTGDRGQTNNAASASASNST
BRAF(V600E), sequence (P15056 whole entry V600E): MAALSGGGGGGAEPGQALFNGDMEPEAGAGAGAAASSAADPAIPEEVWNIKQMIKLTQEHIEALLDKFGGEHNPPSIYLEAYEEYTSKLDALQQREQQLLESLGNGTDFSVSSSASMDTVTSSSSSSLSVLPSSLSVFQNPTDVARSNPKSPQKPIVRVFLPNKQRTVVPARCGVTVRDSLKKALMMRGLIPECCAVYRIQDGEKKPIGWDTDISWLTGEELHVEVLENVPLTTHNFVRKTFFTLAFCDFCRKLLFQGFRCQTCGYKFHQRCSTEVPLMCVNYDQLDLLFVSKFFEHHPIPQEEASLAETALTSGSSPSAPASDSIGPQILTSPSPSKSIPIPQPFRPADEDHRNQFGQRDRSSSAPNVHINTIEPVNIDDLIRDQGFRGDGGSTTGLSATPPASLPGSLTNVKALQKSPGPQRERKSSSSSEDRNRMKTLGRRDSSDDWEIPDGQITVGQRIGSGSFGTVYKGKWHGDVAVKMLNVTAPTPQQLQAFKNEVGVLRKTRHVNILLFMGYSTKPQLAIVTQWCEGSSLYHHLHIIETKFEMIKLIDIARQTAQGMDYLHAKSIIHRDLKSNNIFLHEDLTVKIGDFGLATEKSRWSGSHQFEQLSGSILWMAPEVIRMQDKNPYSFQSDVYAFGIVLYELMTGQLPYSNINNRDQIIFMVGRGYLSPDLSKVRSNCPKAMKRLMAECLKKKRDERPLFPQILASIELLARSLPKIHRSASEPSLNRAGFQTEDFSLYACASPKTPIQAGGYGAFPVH
FGR, sequence (P09769 whole entry): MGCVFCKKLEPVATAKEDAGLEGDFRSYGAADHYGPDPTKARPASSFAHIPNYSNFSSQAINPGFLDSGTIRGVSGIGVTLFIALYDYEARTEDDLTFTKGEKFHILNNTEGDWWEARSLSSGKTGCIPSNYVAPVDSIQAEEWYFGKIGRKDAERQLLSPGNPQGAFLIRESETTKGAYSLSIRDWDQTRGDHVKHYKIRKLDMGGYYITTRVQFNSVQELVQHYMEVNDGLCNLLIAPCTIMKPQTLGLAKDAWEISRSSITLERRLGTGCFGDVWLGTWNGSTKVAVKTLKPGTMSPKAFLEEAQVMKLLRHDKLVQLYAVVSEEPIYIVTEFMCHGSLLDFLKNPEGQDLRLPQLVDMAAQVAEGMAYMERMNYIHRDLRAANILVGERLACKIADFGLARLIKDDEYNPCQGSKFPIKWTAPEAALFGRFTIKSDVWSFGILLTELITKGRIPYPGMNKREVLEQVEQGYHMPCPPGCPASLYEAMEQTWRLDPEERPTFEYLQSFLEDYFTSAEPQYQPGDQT
TLK1, sequence (Q9UKI8 whole entry): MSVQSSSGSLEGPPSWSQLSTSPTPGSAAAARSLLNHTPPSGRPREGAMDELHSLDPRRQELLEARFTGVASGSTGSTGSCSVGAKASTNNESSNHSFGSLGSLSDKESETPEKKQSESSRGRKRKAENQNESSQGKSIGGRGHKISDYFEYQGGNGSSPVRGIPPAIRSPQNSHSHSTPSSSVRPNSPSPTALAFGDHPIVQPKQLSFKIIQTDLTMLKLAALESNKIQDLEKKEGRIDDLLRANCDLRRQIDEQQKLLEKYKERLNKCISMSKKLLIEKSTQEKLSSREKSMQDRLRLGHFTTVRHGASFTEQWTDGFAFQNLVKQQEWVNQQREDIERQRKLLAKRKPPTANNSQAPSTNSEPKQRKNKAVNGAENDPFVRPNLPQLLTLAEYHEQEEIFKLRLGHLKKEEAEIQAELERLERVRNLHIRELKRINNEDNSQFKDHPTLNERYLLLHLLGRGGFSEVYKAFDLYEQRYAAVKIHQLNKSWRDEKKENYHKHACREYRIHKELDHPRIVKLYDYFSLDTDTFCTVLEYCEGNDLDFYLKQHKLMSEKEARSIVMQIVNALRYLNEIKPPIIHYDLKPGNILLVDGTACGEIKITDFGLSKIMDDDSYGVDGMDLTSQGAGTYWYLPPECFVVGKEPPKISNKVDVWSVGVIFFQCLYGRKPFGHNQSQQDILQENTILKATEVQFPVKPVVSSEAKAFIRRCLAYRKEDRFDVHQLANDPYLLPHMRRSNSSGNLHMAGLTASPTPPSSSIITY
TEC, sequence (P42680 whole entry): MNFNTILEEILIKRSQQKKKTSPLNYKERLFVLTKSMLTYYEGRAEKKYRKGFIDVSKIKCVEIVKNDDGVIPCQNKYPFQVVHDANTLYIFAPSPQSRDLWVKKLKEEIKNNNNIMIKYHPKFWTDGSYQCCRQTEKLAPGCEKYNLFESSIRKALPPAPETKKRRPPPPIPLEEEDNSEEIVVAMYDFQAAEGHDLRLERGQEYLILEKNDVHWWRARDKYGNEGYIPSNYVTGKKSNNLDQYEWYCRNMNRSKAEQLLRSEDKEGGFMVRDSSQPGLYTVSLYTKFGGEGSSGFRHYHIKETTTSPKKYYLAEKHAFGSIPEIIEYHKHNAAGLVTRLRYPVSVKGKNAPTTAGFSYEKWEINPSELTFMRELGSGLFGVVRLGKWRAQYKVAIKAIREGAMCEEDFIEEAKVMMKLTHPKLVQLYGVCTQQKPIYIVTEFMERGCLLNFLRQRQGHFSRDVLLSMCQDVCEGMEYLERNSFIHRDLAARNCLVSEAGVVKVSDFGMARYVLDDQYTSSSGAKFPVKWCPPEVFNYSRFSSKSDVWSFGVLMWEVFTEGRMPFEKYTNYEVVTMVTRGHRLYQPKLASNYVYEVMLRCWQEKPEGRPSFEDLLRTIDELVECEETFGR
T10 sequence (P04629 whole entry): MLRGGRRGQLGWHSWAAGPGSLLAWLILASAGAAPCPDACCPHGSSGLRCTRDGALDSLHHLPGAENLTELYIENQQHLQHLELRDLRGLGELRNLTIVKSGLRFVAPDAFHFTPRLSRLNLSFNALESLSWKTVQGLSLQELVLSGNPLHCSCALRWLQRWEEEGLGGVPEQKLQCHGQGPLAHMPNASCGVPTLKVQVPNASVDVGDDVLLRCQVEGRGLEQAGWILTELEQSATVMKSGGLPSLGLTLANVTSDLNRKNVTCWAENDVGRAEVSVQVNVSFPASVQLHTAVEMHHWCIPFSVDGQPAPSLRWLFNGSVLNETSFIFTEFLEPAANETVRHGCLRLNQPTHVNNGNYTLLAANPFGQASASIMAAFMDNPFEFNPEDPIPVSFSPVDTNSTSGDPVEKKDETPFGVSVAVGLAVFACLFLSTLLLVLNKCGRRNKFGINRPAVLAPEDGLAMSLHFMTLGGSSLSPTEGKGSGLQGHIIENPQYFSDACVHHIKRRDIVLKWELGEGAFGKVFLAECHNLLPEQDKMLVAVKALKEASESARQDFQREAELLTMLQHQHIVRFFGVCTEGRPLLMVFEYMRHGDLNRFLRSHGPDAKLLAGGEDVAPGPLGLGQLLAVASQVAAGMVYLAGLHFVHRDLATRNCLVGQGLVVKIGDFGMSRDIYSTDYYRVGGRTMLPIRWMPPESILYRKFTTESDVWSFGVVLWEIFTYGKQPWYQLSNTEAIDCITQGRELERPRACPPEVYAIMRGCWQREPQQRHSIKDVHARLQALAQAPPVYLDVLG
T3 sequence (P11802 whole entry): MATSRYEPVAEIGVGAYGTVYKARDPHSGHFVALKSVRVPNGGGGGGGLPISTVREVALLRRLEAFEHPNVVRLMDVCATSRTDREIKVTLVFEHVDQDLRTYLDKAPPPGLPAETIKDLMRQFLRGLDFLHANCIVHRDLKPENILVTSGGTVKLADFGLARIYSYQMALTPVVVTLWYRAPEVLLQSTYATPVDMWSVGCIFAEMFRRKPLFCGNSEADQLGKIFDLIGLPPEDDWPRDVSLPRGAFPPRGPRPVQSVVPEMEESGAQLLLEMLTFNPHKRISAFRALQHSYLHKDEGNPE
T3 sequence (P30281 whole entry partner): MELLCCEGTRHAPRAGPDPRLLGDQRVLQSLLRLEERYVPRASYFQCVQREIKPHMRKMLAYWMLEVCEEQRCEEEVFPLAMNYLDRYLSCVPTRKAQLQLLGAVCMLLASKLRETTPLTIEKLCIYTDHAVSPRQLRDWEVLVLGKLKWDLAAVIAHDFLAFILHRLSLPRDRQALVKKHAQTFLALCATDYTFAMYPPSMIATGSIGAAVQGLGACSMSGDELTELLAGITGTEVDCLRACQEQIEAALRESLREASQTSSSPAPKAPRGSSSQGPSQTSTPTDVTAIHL
T5 sequence (Q13163 whole entry): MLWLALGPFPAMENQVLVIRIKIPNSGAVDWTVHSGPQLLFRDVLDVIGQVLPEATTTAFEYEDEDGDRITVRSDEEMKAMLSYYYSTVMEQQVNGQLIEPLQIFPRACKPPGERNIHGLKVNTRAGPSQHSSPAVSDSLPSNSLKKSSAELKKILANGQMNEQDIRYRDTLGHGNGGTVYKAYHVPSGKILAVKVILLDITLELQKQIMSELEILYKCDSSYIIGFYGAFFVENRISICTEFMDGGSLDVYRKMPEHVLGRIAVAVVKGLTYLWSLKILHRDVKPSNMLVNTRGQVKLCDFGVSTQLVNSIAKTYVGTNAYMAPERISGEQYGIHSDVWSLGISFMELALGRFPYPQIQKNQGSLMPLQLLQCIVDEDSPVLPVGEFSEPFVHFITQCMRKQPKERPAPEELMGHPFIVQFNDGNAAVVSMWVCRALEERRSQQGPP

Regarding `Cc1ccc(NC(=O)c2cccc(C(F)(F)F)c2)cc1Nc1cc(-c2cccnc2)nc2[nH]ccc12` [HZX-02-059], the remaining binding at 1 µM amounted to 97% at ADCK3; 4.5% at BRAF(V600E); 98% on CAMK1B; 93% on CDK4-cyclinD3; 79% on EGFR(L858R,T790M); 95% on ERBB2. The remaining binding at 1 µM was 92% on ERK8; 92% on FGR; 83% on GSK3B; 0.3% on KIT(L576P); 92% at MARK3; 83% on MEK5. Besides, the remaining binding at 1 µM came to 91% on MINK; 100% on MST3; 94% on NDR2; 54% on NEK3; 56% at PIK3CA(H1047L); 96% on PIK3CG. Also, the remaining binding at 1 µM at SGK stood at 100%; at TEC, 96%; at TIE1, 100%; at TLK1, 95%; at TRKA, 100%; at ULK3 it was 91%.

Source of the values: paper PMC8799717, “Pharmacological targeting PIKfyve and tubulin as an effective treatment strategy for double-hit lymphoma” (Cell Death Discovery, 2022).
